Where two headings read alike, the source gives them in different places.
Legend:
[1] = Single- and multiple-dose rabbit ocular pharmacokinetics (Example 7); assay type: in vivo, Dutch-belted rabbit
Experimental: Dutch-belted male rabbits (Covance, Denver, Pa.) aged 2.5 to 4.5 months and with weights of 1.5 to 2.5 kg were given a 3% solution of mecamylamine hydrochloride (polymer-free solution) by ocular installation either as a single dose or 6 doses (50 microliters per dose), approximately 1.5 hours apart. Serial blood samples (approximately 0.5 mL each) were collected by direct venipuncture from a marginal ear vein into a blood collection tube containing EDTA as anticoagulant from various animal groups at 0.5 hours post dose, 2 hours post dose. A terminal blood sample was obtained from all animals just prior to euthanasia. Animals were euthanized 1, 3 or 6 hours after administration of the drug solution. Ocular tissues (listed in Table 7) were obtained after euthanasia.
The concentration of mecamylamine in plasma and ocular tissues was measured using an LC MS/MS method as described in Example 6.

[2] = Distribution of mecamylamine into ocular tissue of rabbits following intravenous administration (Example 9); assay type: in vivo, New Zealand white rabbit; settings: rabbit; for concentration at 1 h / concentration at 2 h / concentration at 4 h / concentration at 6 h / concentration at 0 h / concentration at 0.5 h: male, iv; for concentration at 1 h / concentration at 2 h / concentration at 4 h / concentration at 6 h / concentration at 0 h / concentration at 0.5 h / Concentration of mecamylamine in the retina/choroid, Mean: 15 mg/kg; for Concentration of mecamylamine in the retina/choroid, Mean: hour 6, listed as MEC
Experimental: Mecamylamine was administered intravenously to male New Zealand white rabbits (approximately 2.5-3 kg (Kralek Frams, Turlock, Calif.)) at a dose of 15 mg/kg (dissolved in sterile 0.9% NaCl for injection) over either over 60 minutes or 6 hours. Drug concentrations were measured as described previously at different time points in the plasma, the vitreous and at 6 hours in the retina-choroid tissue. For both groups, the vitreous(>0.1 mL) was withdrawn at 8 time points, with each animal being sampled no more than twice in total: pre-dose, 5 minutes, 15 minutes, 30 minutes, 1, 2, 4, and 6 hours. At all time points, only two vitreous samples were collected in order to minimize pain and damage to rabbit eyes, in compliance with IACUC guidelines. Plasma samples were also collected at the same 8 time points: pre-dose, 5 minutes, 15 minutes, 30 minutes, 1, 2, 4, and 6 hours, with duplicate samples collected at each time point. At 6 hours, the animals were sacrificed and the vitreous and retina-choroid tissue were collected from all animals. Clinical observations were recorded periodically throughout the study. Biological samples for this study were analyzed using an LC/MS/MS method (see Example 6) with a lower limit of quantitation of 0.5 ng/mL.

[3] = tested on: eyes of New Zealand White rabbits; assay: Pupil diameter, pupillary response and mortality observations after topical ocular instillation in rabbits (Example 10); settings: rabbit; 2 drops of 50 μL topically
Experimental: The objective of this study was to evaluate the ocular pharmacokinetics of a 2% Mecamylamine in a GELRITE solution up to 6 hours following topical instillation into the eyes of New Zealand White rabbits. Nine New Zealand White female rabbits of minimum age of 9 weeks and weight 2-3 kg were obtained from The Rabbit Source (Ramona, Calif.) were used in the study.
On day 1, 2 drops of 50 μL of mecamylamine or vehicle were administered topically into the appropriate eye(s) of each animal as described in Table 13. The time of each dose administration was recorded.

[4] = Toxicokinetics in the 14-day dog study (Example 13); assay type: in vivo; settings: for Cmax: both sexes, beagle, dog, in vivo, topical or ocular
Experimental: An ophthalmic saline solution formulation containing 3% mecamylamine hydrochloride (HCl) was evaluated for toxicological effects and drug pharmacokinetics in healthy beagle dogs. The drug solution or a matching vehicle control was administered 2, 4 and […] for 14 or 15 consecutive days to both eyes of Beagle dogs.
Animals were dosed 2, 4 or 6 times a day for 14 consecutive days for males or 15 consecutive days for females. The dose (50 microliters) was administered to the globe of the eye on each dosing occasion. Mortality and clinical observations were evaluated twice daily. Ocular observations were evaluated according to the Draize scoring system twice daily (Draize et al., (1944) J. Pharm. Exp. Ther. 82: 377-390, incorporated by reference herein). All eyes from all animals had ophthalmology examinations using an indirect ophthalmoscope and slit lamp and were evaluated according to McDonald and Shadduck (McDonald & Shadduck (1977) Advances in Modern Toxicology 4: 162 (New York, Wiley), hereby incorporated by reference herein) prior to treatment initiation and 1-2 hours following the final dosing of Groups 1 and 4 on Days 7 and 14. Approximate pupil size was determined for each animal prior to study initiation, at least 30 minutes following the final daily dose on Days 1 and 8 and prior to terminal sacrifice on Days 15/16. Electroretinograms (ERG) were obtained from all animals prior to treatment initiation and on Day 14. Blood samples for evaluation of hematology, coagulation and clinical chemistry parameters were collected prior to treatment initiation and prior to terminal sacrifice on Days 15/16. Selected tissues were harvested at necropsy, selected organs weighed, and selected tissues from all animals were evaluated microscopically.

[5] = rabbit, 3% solution, 1 hour to 6 hours after dosing

CNC1(C)C2CCC(C2)C1(C)C (stereo not drawn) [mecamylamine, N-2,3,3-tetramethylbicyclo(2.2.1)heptan-2-amine]
Kp ([1]; male, Dutch-belted, retina/choroid and plasma, topical, 50 µL of 3% solution per dose, rabbit, 3% solution, read-out: ratio of mecamylamine concentration in the retina/choroid to the plasma): 37 to 147 | Plasma levels ([1]; rabbit, 3% solution): ≤ 50 ng/mL | Mean peak levels in aqueous humor [1, 5]: 310 to 920 ng/mL | Mean peak levels in the retina/choroid [1, 5]: 171 to 510 ng/g | mecamylamine concentration in the retina/choroid after 6 hourly doses relative to single dose ([1]; rabbit, 1 hour after 6 hourly doses): five-fold | mean maximum concentration of mecamylamine detected in plasma ([1]; rabbits, topical ocular, single dose and multi-dose studies): less than 70 ng/mL | concentration at 1 h ([2]; New Zealand White, plasma, 15 mg/kg i.v. 1 hr infusion, hour 1, read-out: Concentration of mecamylamine in the plasma, Mean): 1820 ng/mL | concentration at 2 h ([2]; New Zealand White, plasma, 15 mg/kg i.v. 1 hr infusion, hour 2, read-out: Concentration of mecamylamine in the plasma, Mean): 455 ng/mL | concentration at 4 h ([2]; New Zealand White, plasma, 15 mg/kg i.v. 1 hr infusion, hour 4, read-out: Concentration of mecamylamine in the plasma, Mean): 227 ng/mL | concentration at 6 h ([2]; New Zealand White, plasma, 15 mg/kg i.v. 1 hr infusion, hour 6, read-out: Concentration of mecamylamine in the plasma, Mean): 102 ng/mL | concentration at 1 h ([2]; New Zealand White, plasma, 15 mg/kg i.v. 6 hr infusion, hour 1, read-out: Concentration of mecamylamine in the plasma, Mean): 470 ng/mL | concentration at 2 h ([2]; New Zealand White, plasma, 15 mg/kg i.v. 6 hr infusion, hour 2, read-out: Concentration of mecamylamine in the plasma, Mean): 572 ng/mL | concentration at 4 h ([2]; New Zealand White, plasma, 15 mg/kg i.v. 6 hr infusion, hour 4, read-out: Concentration of mecamylamine in the plasma, Mean): 717 ng/mL | concentration at 6 h ([2]; New Zealand White, plasma, 15 mg/kg i.v. 6 hr infusion, hour 6, read-out: Concentration of mecamylamine in the plasma, Mean): 313 ng/mL | concentration at 6 h ([2]; New Zealand White, retina/choroid, 15 mg/kg i.v. 1 hr infusion, hour 6, read-out: Concentration of mecamylamine in the retina/choroid, Mean): 261 ng/mL | concentration at 6 h ([2]; New Zealand White, retina/choroid, 15 mg/kg i.v. 6 hr infusion, hour 6, read-out: Concentration of mecamylamine in the retina/choroid, Mean): 1530 ng/mL | concentration at 0 h ([2]; New Zealand white, plasma, 15 mg/kg i.v. 1 hr infusion, hour 0, read-out: Concentration of mecamylamine in the plasma, Mean): 48.7 ng/mL | concentration at 0.5 h ([2]; New Zealand white, plasma, 15 mg/kg i.v. 1 hr infusion, hour 0.5, read-out: Concentration of mecamylamine in the plasma, Mean): 5330 ng/mL | concentration at 0 h ([2]; New Zealand white, plasma, 15 mg/kg i.v. 6 hr infusion, hour 0, read-out: Concentration of mecamylamine in the plasma, Mean): 0 ng/mL | concentration at 0.5 h ([2]; New Zealand white, plasma, 15 mg/kg i.v. 6 hr infusion, hour 0.5, read-out: Concentration of mecamylamine in the plasma, Mean): 350 ng/mL | concentration at 0 h ([2]; New Zealand white, vitreous humor, 15 mg/kg i.v. 1 hr infusion, hour 0, read-out: Concentration of mecamylamine in the vitreous humor, Mean): 43 ng/mL | concentration at 0.5 h ([2]; New Zealand white, vitreous humor, 15 mg/kg i.v. 1 hr infusion, hour 0.5, read-out: Concentration of mecamylamine in the vitreous humor, Mean): 717 ng/mL | concentration at 1 h ([2]; New Zealand white, vitreous humor, 15 mg/kg i.v. 1 hr infusion, hour 1, read-out: Concentration of mecamylamine in the vitreous humor, Mean): 1110 ng/mL | concentration at 2 h ([2]; New Zealand white, vitreous humor, 15 mg/kg i.v. 1 hr infusion, hour 2, read-out: Concentration of mecamylamine in the vitreous humor, Mean): 900 ng/mL | concentration at 4 h ([2]; New Zealand white, vitreous humor, 15 mg/kg i.v. 1 hr infusion, hour 4, read-out: Concentration of mecamylamine in the vitreous humor, Mean): 430 ng/mL | concentration at 6 h ([2]; New Zealand white, vitreous humor, 15 mg/kg i.v. 1 hr infusion, hour 6, read-out: Concentration of mecamylamine in the vitreous humor, Mean): 174 ng/mL | concentration at 0 h ([2]; New Zealand white, vitreous humor, 15 mg/kg i.v. 6 hr infusion, hour 0, read-out: Concentration of mecamylamine in the vitreous humor, Mean): 5.6 ng/mL | concentration at 0.5 h ([2]; New Zealand white, vitreous humor, 15 mg/kg i.v. 6 hr infusion, hour 0.5, read-out: Concentration of mecamylamine in the vitreous humor, Mean): 59.9 ng/mL | concentration at 1 h ([2]; New Zealand white, vitreous humor, 15 mg/kg i.v. 6 hr infusion, hour 1, read-out: Concentration of mecamylamine in the vitreous humor, Mean): 138 ng/mL | concentration at 2 h ([2]; New Zealand white, vitreous humor, 15 mg/kg i.v. 6 hr infusion, hour 2, read-out: Concentration of mecamylamine in the vitreous humor, Mean): 223 ng/mL | concentration at 4 h ([2]; New Zealand white, vitreous humor, 15 mg/kg i.v. 6 hr infusion, hour 4, read-out: Concentration of mecamylamine in the vitreous humor, Mean): 408 ng/mL | concentration at 6 h ([2]; New Zealand white, vitreous humor, 15 mg/kg i.v. 6 hr infusion, hour 6, read-out: Concentration of mecamylamine in the vitreous humor, Mean): 458 ng/mL | Concentration of mecamylamine in the retina/choroid, Mean ([2]; 15 mg/kg i.v. 1 hr infusion): 260.8 ng/mL | Concentration of mecamylamine in the retina/choroid, Mean ([2]; 15 mg/kg i.v. 6 hr infusion): 1534.3 ng/mL | peak mean plasma concentration ([2]; 15 mg/kg i.v. over longer period (6 hours)): 717 ng/mL | time of peak plasma levels ([2]; 15 mg/kg i.v. over shorter period): ≤ 0.5 h | peak mean plasma concentration ([2]; 15 mg/kg i.v. over shorter period (60 minutes)): 5,331 ng/mL | highest mean level in the vitreous ([2]; longer infusion period, seen at 6 hours): 458 ng/mL | highest mean level in the vitreous ([2]; shorter infusion period, seen at 1 hour): 1110 ng/mL | mortality [3]: no mortality | accumulation ratios ([4]; Beagle dog, Day 13 versus Day 1, any group): ≤ 1.14 | Cmax ([4]; 3 mg/eye/day, Group 2 (2 doses/eye/day, 3 mg/eye/day), read-out: Cmax, mean): 49 ng/mL | Cmax ([4]; 3 mg/eye/day, Group 2, read-out: Cmax, highest overall value): 185 ng/mL | Cmax ([4]; 6 mg/eye/day, Group 3 (4 doses/eye/day, 6 mg/eye/day), read-out: Cmax, mean): 44 ng/mL | Cmax ([4]; 9 mg/eye/day, Group 4 (6 doses/eye/day, 9 mg/eye/day), read-out: Cmax, mean): 64 ng/mL
